From patent publication US20120122860A1, “SOLID FORMS OF SULFONAMIDES AND AMINO ACIDS” (Plexxikon, Inc., priority 2009, published 2012)

Columns and labels:
MAP4K4 = MAP4K4 (Homo sapiens, UniProt O95819); assay: Kinase activity assay, MAP4K4
B-Raf = B-Raf (Homo sapiens, UniProt P15056); assay: Kinase activity assay, B-Raf; format: biochemical; conditions: read-out: activity toward kinase B-Raf, IC50
B-Raf V600E = B-Raf V600E (Homo sapiens, UniProt P15056, V600E); assay: Kinase activity assay, B-Raf V600E; format: biochemical; conditions: read-out: activity toward kinase B-Raf V600E, IC50
Chain of B-Raf V600E (P15056 whole entry V600E): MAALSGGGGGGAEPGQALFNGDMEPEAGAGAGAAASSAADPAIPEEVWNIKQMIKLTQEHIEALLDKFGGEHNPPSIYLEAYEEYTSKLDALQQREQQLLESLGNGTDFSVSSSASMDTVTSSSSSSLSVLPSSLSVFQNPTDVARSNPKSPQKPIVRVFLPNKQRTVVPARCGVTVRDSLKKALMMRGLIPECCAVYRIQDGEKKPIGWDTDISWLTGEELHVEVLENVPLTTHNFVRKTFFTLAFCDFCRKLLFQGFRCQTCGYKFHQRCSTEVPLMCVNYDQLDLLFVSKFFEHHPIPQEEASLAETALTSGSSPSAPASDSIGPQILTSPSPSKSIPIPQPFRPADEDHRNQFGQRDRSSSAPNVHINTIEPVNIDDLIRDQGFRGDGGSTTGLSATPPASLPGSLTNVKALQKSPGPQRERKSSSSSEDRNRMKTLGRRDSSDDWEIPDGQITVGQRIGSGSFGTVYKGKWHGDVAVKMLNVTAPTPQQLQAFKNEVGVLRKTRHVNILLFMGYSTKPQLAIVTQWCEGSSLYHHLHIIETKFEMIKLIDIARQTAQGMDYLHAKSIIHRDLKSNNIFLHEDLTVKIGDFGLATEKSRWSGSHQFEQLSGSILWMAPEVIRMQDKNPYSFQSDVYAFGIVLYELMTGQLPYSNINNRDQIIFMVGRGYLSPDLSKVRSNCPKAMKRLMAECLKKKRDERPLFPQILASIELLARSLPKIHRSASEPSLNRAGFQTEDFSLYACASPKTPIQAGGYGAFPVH

Fms = Fms (Homo sapiens, UniProt P07333); assay: Kinase activity assay, Fms
Chain of Fms (P07333 20-972): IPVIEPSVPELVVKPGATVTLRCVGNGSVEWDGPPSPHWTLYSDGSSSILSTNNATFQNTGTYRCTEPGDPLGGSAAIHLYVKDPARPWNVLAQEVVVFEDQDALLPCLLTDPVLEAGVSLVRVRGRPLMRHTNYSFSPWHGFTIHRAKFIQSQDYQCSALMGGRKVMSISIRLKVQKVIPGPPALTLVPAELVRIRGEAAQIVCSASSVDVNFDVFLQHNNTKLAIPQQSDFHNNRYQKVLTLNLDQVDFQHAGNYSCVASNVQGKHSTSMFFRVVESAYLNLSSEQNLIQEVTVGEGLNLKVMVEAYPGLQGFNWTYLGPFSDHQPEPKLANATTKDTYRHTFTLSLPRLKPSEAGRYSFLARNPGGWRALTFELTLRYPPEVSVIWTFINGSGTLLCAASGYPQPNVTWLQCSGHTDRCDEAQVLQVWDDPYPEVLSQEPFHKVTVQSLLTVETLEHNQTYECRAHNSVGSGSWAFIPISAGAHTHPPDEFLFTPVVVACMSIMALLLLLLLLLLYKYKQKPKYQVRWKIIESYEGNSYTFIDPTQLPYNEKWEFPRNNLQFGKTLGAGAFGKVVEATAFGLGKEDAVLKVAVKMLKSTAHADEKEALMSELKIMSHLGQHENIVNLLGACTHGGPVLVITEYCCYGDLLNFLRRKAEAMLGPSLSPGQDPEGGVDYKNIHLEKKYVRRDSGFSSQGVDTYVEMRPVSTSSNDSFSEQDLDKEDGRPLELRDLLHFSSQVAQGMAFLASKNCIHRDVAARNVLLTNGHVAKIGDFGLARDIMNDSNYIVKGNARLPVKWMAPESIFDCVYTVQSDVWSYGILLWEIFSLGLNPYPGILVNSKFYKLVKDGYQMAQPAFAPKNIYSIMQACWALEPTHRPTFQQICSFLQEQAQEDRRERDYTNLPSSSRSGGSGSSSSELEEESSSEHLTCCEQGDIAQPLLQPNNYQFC

Flt1 = Flt1 (Homo sapiens, UniProt P17948); assay: Kinase activity assay, Flt1
Kdr = Kdr (Homo sapiens, UniProt P35968); assay: Kinase activity assay, Kdr
TEC = biological target: T1, TEC (Homo sapiens, UniProt P42680); assay: Kinase activity assay, TEC
T1 sequence (P42680 1-631): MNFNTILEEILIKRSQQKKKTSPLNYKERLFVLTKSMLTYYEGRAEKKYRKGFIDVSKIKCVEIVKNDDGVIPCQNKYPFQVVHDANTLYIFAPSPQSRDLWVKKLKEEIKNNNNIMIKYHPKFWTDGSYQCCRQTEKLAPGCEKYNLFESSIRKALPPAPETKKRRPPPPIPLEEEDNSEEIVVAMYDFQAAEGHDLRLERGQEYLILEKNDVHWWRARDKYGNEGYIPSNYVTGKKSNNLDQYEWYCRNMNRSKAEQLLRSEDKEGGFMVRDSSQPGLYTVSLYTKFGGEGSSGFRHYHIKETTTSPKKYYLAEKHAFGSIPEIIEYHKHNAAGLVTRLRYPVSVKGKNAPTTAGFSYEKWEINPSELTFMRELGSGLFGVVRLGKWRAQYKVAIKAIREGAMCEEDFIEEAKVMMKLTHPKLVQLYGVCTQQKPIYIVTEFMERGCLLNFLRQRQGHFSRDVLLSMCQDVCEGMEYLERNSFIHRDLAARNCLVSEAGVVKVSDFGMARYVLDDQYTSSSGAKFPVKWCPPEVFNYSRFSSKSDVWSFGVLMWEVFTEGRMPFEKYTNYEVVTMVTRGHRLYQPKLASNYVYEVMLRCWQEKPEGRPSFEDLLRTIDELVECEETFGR

Kit = Kit (Homo sapiens, UniProt P10721); assay: Kinase activity assay, Kit
Btk = Btk (Homo sapiens, UniProt Q06187); assay: Kinase activity assay, Btk
Chain of Btk (Q06187 whole entry): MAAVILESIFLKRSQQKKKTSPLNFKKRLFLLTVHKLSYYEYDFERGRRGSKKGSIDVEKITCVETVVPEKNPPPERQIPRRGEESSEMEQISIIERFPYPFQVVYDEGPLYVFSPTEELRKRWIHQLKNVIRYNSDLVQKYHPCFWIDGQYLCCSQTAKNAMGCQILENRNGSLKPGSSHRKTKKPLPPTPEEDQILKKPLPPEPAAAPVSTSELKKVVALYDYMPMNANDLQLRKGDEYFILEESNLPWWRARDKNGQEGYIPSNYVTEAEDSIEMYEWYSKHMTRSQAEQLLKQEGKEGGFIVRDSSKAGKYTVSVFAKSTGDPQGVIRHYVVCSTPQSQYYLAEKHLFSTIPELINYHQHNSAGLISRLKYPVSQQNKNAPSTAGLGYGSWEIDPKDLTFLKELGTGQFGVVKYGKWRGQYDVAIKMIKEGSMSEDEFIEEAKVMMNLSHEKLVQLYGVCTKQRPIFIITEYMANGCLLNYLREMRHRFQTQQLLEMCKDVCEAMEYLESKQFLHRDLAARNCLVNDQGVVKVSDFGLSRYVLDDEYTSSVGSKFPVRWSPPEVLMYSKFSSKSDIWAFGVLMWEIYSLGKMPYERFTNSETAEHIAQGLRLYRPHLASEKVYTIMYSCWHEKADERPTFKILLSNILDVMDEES

Src = Src (Homo sapiens, UniProt P12931); assay: Kinase activity assay, Src
Chain of Src (P12931 whole entry): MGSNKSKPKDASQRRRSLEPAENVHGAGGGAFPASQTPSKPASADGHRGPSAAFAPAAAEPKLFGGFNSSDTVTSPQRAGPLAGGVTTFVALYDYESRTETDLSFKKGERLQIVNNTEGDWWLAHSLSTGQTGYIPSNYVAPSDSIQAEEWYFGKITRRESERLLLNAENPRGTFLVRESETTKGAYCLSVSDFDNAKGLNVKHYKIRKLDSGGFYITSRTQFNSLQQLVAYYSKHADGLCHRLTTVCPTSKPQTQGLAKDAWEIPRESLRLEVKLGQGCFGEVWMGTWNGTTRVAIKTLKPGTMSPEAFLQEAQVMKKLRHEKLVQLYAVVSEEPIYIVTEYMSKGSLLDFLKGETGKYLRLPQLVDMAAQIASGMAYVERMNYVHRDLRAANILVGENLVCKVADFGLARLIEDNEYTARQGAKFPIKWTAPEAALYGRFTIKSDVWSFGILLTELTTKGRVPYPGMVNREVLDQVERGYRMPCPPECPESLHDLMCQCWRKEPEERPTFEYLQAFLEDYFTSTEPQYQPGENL

C-Raf = C-Raf (Homo sapiens, UniProt P04049); assay: Kinase activity assay, C-Raf
Chain of C-Raf (P04049 whole entry): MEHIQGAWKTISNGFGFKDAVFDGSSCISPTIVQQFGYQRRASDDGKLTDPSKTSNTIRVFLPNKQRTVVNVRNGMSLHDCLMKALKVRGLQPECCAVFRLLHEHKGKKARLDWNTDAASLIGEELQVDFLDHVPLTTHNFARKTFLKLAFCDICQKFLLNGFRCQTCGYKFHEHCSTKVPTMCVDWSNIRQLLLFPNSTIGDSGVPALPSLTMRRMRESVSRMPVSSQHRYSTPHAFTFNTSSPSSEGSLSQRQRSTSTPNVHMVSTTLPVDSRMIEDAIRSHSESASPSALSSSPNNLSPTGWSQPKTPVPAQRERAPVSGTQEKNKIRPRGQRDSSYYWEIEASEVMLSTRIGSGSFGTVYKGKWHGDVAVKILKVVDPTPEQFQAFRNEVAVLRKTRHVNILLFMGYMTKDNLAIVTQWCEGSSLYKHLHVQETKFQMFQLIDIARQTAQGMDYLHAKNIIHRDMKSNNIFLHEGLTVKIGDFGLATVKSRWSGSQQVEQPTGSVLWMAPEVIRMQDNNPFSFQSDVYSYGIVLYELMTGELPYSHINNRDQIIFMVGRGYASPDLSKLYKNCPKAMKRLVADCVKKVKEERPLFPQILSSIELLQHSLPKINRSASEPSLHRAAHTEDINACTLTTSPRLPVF

A-Raf = biological target: T2, A-Raf (Homo sapiens, UniProt P10398); assay: Kinase activity assay, A-Raf
T2 sequence (P10398 1-606): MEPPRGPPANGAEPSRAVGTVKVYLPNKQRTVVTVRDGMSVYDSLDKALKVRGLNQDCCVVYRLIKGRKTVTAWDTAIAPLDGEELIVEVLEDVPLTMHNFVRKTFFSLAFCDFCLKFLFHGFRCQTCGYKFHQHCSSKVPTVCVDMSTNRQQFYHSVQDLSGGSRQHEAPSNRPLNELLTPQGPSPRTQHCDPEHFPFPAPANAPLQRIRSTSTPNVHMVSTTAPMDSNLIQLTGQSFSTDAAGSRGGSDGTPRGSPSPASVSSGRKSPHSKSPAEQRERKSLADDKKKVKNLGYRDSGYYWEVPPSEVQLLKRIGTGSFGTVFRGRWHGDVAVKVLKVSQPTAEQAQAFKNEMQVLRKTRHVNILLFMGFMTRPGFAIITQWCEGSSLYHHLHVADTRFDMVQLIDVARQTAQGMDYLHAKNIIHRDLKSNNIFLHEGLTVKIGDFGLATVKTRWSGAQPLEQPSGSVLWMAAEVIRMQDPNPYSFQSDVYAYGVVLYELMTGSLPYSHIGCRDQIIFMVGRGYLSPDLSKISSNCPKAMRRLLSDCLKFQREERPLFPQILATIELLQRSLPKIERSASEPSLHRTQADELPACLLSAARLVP

Measured: IC50

Chain of B-Raf (P15056 whole entry): as the sequence (P15056 whole entry V600E) above, with E600V counted along it
Chain of MAP4K4 (O95819 whole entry): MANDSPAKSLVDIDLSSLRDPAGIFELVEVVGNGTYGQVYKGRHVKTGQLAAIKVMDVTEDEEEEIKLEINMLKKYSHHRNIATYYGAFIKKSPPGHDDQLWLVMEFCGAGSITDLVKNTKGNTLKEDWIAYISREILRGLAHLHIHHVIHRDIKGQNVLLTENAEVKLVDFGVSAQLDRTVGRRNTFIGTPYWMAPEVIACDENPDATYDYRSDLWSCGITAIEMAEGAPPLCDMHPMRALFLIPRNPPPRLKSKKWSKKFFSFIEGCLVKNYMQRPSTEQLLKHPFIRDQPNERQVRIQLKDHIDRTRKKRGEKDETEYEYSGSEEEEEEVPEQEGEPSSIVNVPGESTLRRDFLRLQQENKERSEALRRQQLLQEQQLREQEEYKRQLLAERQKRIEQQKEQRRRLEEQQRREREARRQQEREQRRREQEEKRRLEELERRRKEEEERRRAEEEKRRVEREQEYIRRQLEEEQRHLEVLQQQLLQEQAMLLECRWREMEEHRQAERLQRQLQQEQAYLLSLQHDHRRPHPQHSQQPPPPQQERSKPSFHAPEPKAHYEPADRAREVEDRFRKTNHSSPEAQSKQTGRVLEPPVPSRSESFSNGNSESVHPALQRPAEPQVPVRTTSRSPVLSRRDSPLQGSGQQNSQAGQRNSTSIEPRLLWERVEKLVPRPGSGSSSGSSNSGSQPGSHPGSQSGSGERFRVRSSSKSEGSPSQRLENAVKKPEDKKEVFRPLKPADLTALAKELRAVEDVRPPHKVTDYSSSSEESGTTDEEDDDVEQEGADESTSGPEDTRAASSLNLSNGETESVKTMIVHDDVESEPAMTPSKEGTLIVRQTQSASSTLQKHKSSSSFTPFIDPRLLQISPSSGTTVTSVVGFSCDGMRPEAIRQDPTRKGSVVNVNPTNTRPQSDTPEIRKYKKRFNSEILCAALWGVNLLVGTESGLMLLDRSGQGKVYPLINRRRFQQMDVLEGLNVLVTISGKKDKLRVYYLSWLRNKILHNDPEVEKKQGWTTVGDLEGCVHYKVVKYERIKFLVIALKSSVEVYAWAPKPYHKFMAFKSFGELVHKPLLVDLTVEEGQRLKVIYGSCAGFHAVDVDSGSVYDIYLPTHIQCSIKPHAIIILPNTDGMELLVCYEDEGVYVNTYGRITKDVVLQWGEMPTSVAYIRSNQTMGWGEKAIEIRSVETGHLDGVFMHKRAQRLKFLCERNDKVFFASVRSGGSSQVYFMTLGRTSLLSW

Cn1cc(-c2cnc3[nH]cc(C(=O)c4c(F)ccc(NS(=O)(=O)c5cccc(OC(F)F)c5)c4Cl)c3c2)cn1 [P-2099, N-{2-Chloro-4-fluoro-3-[5-(1-methyl-1H-pyrazol-4-yl)-1H-pyrrolo[2,3-b]pyridine-3-carbonyl]-phenyl}-3-difluoromethoxy-benzenesulfonamide]
not listed: Src | C-Raf | A-Raf
≤ 10 µM: all other assays above

Cn1cc(-c2cnc3[nH]cc(C(=O)c4cc(NS(=O)(=O)c5ccc(F)cc5)ccc4F)c3c2)cn1 [P-2100, 4-Fluoro-N-{4-fluoro-3-[5-(1-methyl-1H-pyrazol-4-yl)-1H-pyrrolo[2,3-b]pyridine-3-carbonyl]-phenyl}-benzenesulfonamide]
≤ 10 µM: Src | B-Raf V600E | Fms | Flt1 | Kdr | Kit | Btk

CCCS(=O)(=O)Nc1ccc(F)c(C(=O)c2c[nH]c3ncc(-c4ccc(C(=O)NCC)nc4)cc23)c1F [P-2151, 5-{3-[2,6-Difluoro-3-(propane-1-sulfonylamino)-benzoyl]-1H-pyrrolo[2,3-b]pyridin-5-yl}-pyridine-2-carboxylic acid ethylamide]
not listed: MAP4K4 | TEC | Btk | A-Raf
≤ 10 µM: all other assays above

CCCS(=O)(=O)Nc1ccc(F)c(C(=O)c2c[nH]c3ncc(-c4cnc(N(C)C)nc4)cc23)c1F [P-2196, Propane-1-sulfonic acid {3-[5-(2-dimethylamino-pyrimidin-5-yl)-1H-pyrrolo[2,3-b]pyridine-3-carbonyl]-2,4-difluoro-phenyl}-amide]
≤ 10 µM: C-Raf | B-Raf | Src | B-Raf V600E | Flt1 | A-Raf | Kdr

CCCS(=O)(=O)Nc1ccc(F)c(C(=O)c2c[nH]c3ncc(-c4cnc(OC)nc4OC)cc23)c1F [P-2199, Propane-1-sulfonic acid {3-[5-(2,4-dimethoxy-pyrimidin-5-yl)-1H-pyrrolo[2,3-b]pyridine-3-carbonyl]-2,4-difluoro-phenyl}-amide]
not listed: Src | A-Raf
≤ 10 µM: all other assays above

CCCS(=O)(=O)Nc1ccc(F)c(C(=O)c2c[nH]c3nccc(OC)c23)c1F [P-2210, Propane-1-sulfonic acid [2,4-difluoro-3-(4-methoxy-1H-pyrrolo[2,3-b]pyridine-3-carbonyl)-phenyl]-amide]
≤ 10 µM: C-Raf | B-Raf | Src | B-Raf V600E | Flt1 | A-Raf | Kdr

CCCS(=O)(=O)Nc1ccc(F)c(C(=O)c2c[nH]c3ncc(-c4ccc(C)nc4)cc23)c1F [P-2213, Propane-1-sulfonic acid {2,4-difluoro-3-[5-(6-methyl-pyridin-3-yl)-1H-pyrrolo[2,3-b]pyridine-3-carbonyl]-phenyl}-amide]
not listed: MAP4K4 | TEC | Btk | A-Raf
≤ 10 µM: all other assays above

CCCS(=O)(=O)Nc1ccc(F)c(C(=O)c2c[nH]c3ncc(-c4ccc(OCCO)nc4)cc23)c1F [P-2215, Propane-1-sulfonic acid (2,4-difluoro-3-{5-[6-(2-hydroxy-ethoxy)-pyridin-3-yl]-1H-pyrrolo[2,3-b]pyridine-3-carbonyl}-phenyl)-amide]
not listed: TEC | Btk | A-Raf
≤ 10 µM: all other assays above

CCCS(=O)(=O)Nc1ccc(F)c(C(=O)c2c[nH]c3ncc(-c4ccc(OCCCN(CC)CC)nc4)cc23)c1F [P-2216, Propane-1-sulfonic acid (3-{5-[6-(3-diethylamino-propoxy)-pyridin-3-yl]-1H-pyrrolo[2,3-b]pyridine-3-carbonyl}-2,4-difluoro-phenyl)-amide]
not listed: MAP4K4 | TEC | Btk | A-Raf
≤ 10 µM: all other assays above

CCCS(=O)(=O)Nc1ccc(F)c(C(=O)c2c[nH]c3ncc(-c4ccc(S(=O)(=O)CC)cc4)cc23)c1F [P-2218, Propane-1-sulfonic acid {3-[5-(4-ethanesulfonyl-phenyl)-1H-pyrrolo[2,3-b]pyridine-3-carbonyl]-2,4-difluoro-phenyl}-amide]
≤ 10 µM: C-Raf | B-Raf | B-Raf V600E | Fms | Flt1 | Kdr | Kit

CC(C)CS(=O)(=O)Nc1ccc(F)c(C(=O)c2c[nH]c3ncc(-c4cnn(C)c4)cc23)c1F [P-2299, 2-Methyl-propane-1-sulfonic acid {2,4-difluoro-3-[5-(1-methyl-1H-pyrazol-4-yl)-1H-pyrrolo[2,3-b]pyridine-3-carbonyl]-phenyl}-amide]
not listed: MAP4K4 | C-Raf | A-Raf
≤ 10 µM: all other assays above

CCCCS(=O)(=O)Nc1ccc(F)c(C(=O)c2c[nH]c3ncc(-c4cnn(C)c4)cc23)c1Cl [P-2430, Butane-1-sulfonic acid {2-chloro-4-fluoro-3-[5-(1-methyl-1H-pyrazol-4-yl)-1H-pyrrolo[2,3-b]pyridine-3-carbonyl]-phenyl}-amide]
not listed: Btk | Src | A-Raf
≤ 10 µM: all other assays above

CCCCS(=O)(=O)Nc1ccc(F)c(C(=O)c2c[nH]c3ncc(-c4cnn(C)c4)cc23)c1 [P-2432, Butane-1-sulfonic acid {4-fluoro-3-[5-(1-methyl-1H-pyrazol-4-yl)-1H-pyrrolo[2,3-b]pyridine-3-carbonyl]-phenyl}-amide]
not listed: A-Raf
≤ 10 µM: all other assays above

Cn1cc(-c2cnc3[nH]cc(C(=O)c4cccc(NS(=O)(=O)C5CCCCC5)c4)c3c2)cn1 [P-2457, Cyclohexanesulfonic acid {3-[5-(1-methyl-1H-pyrazol-4-yl)-1H-pyrrolo[2,3-b]pyridine-3-carbonyl]-phenyl}-amide]
not listed: B-Raf | C-Raf | A-Raf
≤ 10 µM: all other assays above
